Results as given in paper PMC4822341 (Cell Discovery, 2015).

Columns and labels:
GR [1] = target: T1, GR (Homo sapiens, UniProt P04150); experiment: AP-1-Luc repression reporter assay in AD293 cells; type: cell-based; conditions: AP-1 reporter, PMA 0.6 ng ml^-1
T1 construct: expressed in transfected cells; host or cells: AD293
T1 sequence (P04150 1-777): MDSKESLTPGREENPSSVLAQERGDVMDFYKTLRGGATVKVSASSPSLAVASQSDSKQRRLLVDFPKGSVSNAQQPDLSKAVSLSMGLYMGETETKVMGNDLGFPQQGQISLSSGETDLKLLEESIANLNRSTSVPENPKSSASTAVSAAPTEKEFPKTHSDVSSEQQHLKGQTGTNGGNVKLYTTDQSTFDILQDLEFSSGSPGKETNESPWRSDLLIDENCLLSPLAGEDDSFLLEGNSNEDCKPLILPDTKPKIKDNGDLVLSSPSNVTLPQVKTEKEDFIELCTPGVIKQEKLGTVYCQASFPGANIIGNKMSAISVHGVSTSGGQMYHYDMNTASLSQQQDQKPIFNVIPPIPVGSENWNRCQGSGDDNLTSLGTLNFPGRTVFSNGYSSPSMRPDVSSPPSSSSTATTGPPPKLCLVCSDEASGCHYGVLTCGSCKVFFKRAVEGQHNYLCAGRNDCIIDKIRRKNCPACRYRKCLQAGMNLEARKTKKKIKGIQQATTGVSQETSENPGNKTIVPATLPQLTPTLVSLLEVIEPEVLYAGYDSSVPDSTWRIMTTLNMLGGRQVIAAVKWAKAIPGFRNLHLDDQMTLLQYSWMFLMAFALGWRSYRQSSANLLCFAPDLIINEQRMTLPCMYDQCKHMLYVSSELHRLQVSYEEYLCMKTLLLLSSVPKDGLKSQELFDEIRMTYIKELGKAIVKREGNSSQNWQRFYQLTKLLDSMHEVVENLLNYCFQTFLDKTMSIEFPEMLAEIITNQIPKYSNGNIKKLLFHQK
Procedure: (§1) Similar to previous reports, for induction 100 ng pHHLuc (MMTV-Luc) plasmid, 0.1 ng pRShGR together with 5 ng phRGtkRenilla were transfected by X-tremeGENE 9 (Roche) into AD293 cells per well in 24-well plate. For transrepression, 10 ng AP-1-Luc or 10ng pNF-κB-luc, 100 ng pRShGR and 5 ng phRGtkRenilla were transfected into AD293 cells per well. We used the same transfection protocol for the MR and PR assays, except of the use of 0.1 ng MR or PR plasmid to substitute GR. One day after transfection, for induction, cells were directly treated by steroids for 16 h; for repression, cells were treated with either PMA at 0.6 ng ml^–1 (for AP-1 reporter) or TNFα at 2 ng ml^–1 (for NF-κB reporter), together with various steroids. Cells were collected by addition of 1× Passive Lysis Buffer (Promega, Madison, WI, USA), and luciferase activity was assayed by the Dual-Glo Luciferase system (Promega). Data were plotted as firefly luciferase activity normalized to Renilla luciferase activity in Relative Luciferase Units.

GR [2] = target: T1, GR; experiment: In vitro H3-Dex competition GR ligand-binding assay; conditions: H3-DEX 15 nM, GR cytosol
Excerpt: The in vitro GR binding assay is similar to the one described previously. […] Data were plotted as a standard competition curve by GraphPad Prism 5.

[3] = Body weight (growth inhibition) of DBA/1 mice; type: in vivo; conditions: 0.0625 mg kg^-1 daily, 2 weeks
Procedure: Figure 5 Examination of side effects of VSGC12 and FF at the effective dose. (a) Body weight of DBA/1 mice treated with the indicated daily dose of steroids for 2 weeks. Mice body weight was measured at day 0, 7 and 14. (b) Insulin-tolerance test of mice treated with the indicated daily doses of steroids for 7 days. Glucose level was measured at day 7 at various time points before and after insulin injection. Data were plotted as percent of the glucose level of time 0. (c) Plasma insulin levels of mice treated with the indicated daily doses of steroid for 7 days. (d) Spleen size and weight for mice treated with the indicated daily doses of steroid for 2 weeks. (e) Cortical bone thickness of femurs of mice treated with the indicated daily doses of steroid for 2 weeks. (f) Bone stiffness of femurs of mice treated with the indicated daily doses of steroid for 2 weeks. Mouse strain: DBA/1. Each treatment n=5, error bars indicate s.e.m., *P<0.05; **P<0.01; ***P<0.001.

GR [4] = target: T1, GR; experiment: NF-κB-Luc repression reporter assay in AD293 cells; type: cell-based; conditions: TNFα 2 ng ml^-1
Procedure: as §1
Error bars indicate SD, n=3.

PR = target: T2, PR (Homo sapiens, UniProt P06401); experiment: PR reporter assay (off-target activity); type: cell-based; conditions: steroid 1 μM; percent of 1 μM progesterone
T2 construct: expressed in transfected cells; host or cells: AD293
T2 sequence (P06401 1-933): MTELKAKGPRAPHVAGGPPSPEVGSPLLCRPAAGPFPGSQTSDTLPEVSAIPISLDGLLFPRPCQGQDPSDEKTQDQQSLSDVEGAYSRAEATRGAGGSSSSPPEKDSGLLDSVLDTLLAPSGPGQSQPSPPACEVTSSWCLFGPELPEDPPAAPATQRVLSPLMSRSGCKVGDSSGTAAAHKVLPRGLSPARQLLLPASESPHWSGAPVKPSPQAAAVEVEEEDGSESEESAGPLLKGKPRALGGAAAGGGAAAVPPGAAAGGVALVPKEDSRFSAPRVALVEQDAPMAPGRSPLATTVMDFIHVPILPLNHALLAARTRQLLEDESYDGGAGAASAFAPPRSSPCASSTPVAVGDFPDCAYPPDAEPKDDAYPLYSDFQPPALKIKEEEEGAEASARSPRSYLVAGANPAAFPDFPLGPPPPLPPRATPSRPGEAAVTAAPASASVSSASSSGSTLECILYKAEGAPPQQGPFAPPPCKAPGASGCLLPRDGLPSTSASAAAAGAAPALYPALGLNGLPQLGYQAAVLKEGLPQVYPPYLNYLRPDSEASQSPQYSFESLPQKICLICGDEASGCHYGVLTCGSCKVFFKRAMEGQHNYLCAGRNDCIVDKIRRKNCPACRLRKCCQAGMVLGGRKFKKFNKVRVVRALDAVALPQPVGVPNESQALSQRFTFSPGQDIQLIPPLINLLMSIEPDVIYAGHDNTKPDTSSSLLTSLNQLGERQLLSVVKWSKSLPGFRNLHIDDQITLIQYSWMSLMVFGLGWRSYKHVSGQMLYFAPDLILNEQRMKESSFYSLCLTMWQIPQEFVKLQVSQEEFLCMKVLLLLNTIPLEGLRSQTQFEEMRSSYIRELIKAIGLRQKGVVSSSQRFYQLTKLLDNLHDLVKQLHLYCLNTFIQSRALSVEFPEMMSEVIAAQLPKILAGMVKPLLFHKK
Procedure: as §1

With `CON(C)C(=O)C1(OC(=O)c2ccco2)C(C)CC2C3CC(F)C4=Cc5c(cnn5-c5ccccc5)CC4(C)C3(F)C(O)CC21C` (centres unmarked) [VSGC12] as the compound, how does the IC50 (GR [1]) read?
The IC50 was 0.02 nM.

And the IC50 (GR [2])?
The IC50 was 6.1 nM.

What about the “growth inhibition (body weight)” value [3] of the same compound?
The value was “did not cause a significant growth inhibition”.

And the IC50 (GR [4])?
The IC50 was 0.08 nM.

What about the PR activity (PR) of the same compound?
The PR activity was “higher activity than VSG22, but a lower activity than MF, FF and FP”.
